This assay has as its system Ago2 and Dicer protein interactions. The assay is described as follows: Targeted mass spectrometry of Ago2-Flag / Dicer-Flag interactions in HEK293 cells under stress. The format is cell-based. Particulars: 0.5 mM, 60 min. The method, then:
(FIG. 9A) The ratio of pre-miRNA to mature miRNA levels in NSC-34 cells, transfected with plasmids as indicated and in cells treated for 72 hrs with carrier alone (water, black) or with cycloheximide (CHX, 0.02 μg/ml, gray). Data normalized to control plasmid transfection. Pre-miRNAs further normalized to Gapdh (for FUS R495X, TDP-43 A315T) or to beta-actin (SOD1 G93A) and miRNA levels normalized to Snord68. Average of three independent experiments except for pre-miRNAs in the study of FUS R495X (n=2). Targeted quantitative mass spectrometry analysis of changes in the binding of Ago2 or Dicer to a set of proteins interactors under stress (FIGS. 9B-E). Immunoprecipitated Ago2-Flag (FIG. 9B) or Dicer-Flag (FIG. 9C) from HEK 293 cells, cultured under basal conditions or treated with sodium arsenite (0.5 mM, 60 min) was subjected to targeted mass-spectrometry analysis. Data is averaged from two or three different peptide standards per protein and normalized to the levels of co-immunoprecipiated peptides from untreated cells. Statistically significant result in a student t-test, between arsenite and control treatment is denoted (*p<0.05). Targeted mass spectrometry of (FIG. 9D) Dicer cofactors or (FIG. 9E) SG components, immunoprecipitated with AGO-Flag in FUS R495X-expressing HEK 293 that were further treated for 72 hrs with carrier alone or Cycloheximide (0.02 μg/ml). (FIG. 9F) The ratio of pre-miRNA to mature miRNA levels in mouse embryonic fibroblasts, pretreated for 5 hrs with HSP90 inhibitors (17-AAG, 1 μM or Geldanamycin, 1 μM) and then incubated for 36 more hours with Thapsigargin (5 nM) in combinations with the respective HSP90 inhibitor. Bars represent the average of three independent experiments. miRNA normalized to the expression levels of Snord70, and pre-miRNA normalized to Gapdh.
For mass-spectrometry, HEK293 that either stably express Ago2-FLAG (n=3 for each group) or Dicer-Flag transfected cells (48 hrs post-transfection, n=4 for each group) were untreated or stressed with 0.5 mM sodium arsenite for 60 minutes before harvest. IP was performed with the FLAG-IPT1 Kit (Sigma-Aldrich). Negative controls were HEK293 cells not containing a FLAG-construct. Samples containing the eluted proteins and the FLAG peptide were filtered using 3 kDa molecular weight cut-off spin columns (Amicon, Millipore). Buffer was exchanged to 50 mM ammonium bicarbonate (Sigma-Aldrich) in the same step. Proteins were reduced by addition of dithiothreitol (Sigma-Aldrich) to a final concentration of 5 mM and incubation for 30 minutes at 60° C., and alkylated with 10 mM iodoacetamide (Sigma-Aldrich) in the dark for 30 minutes at 21° C. The proteins were then digested using trypsin (Promega; Madison, Wis., USA) at a ratio of 1:50 (w/w trypsin/protein) for 16 hrs at 37° C. […]

Structures are written as SMILES.

Turning to `O=[As]O` [sodium arsenite], the “Ago2 and/or Dicer protein interactions with SG components eiF2S1, eIF3, eIF5a and with PCBP1, PCBP2” value is reported as “increased Ago2 and/or Dicer protein interactions with SG components”; the “increase of Ago2 phosphorylation on serine-387” value is “more than 10 fold”; the “interaction of HSP90 and co-chaperone p23 with Dicer” value is “increased interaction with Dicer under stress”. In addition, the “interactions of Ago2 with Dicer” value (relative to basal conditions) is “enhanced interactions of Ago2 with Dicer”.

The values above are taken from US10159670B2, “Methods of diagnosing and treating motor neuron diseases and other cellular stress-related diseases” (priority 2012, dated 2018).
